Assays:
[1] = acute toxicity tests with mice; conditions: mouse, in vivo
Excerpt: It was confirmed that dehydroepiandrosterone (DHEA), which is used as an active ingredient in the present invention, was effective in increasing the hyaluronic acid content of skin to prevent and treat the symptoms of aging of skin. It was also confirmed that dehydroepiandrosterone was effective in inhibiting scar formation during the healing of an injury to skin. In addition, unlike retinoic acid which is teratogenic and estrogens that induce cardiovascular disorders, DHEA in its stable sulfate form has been commercialized as a drug that aids the process of childbirth and is used in clinical applications.

[2] = tested on: content of hyaluronic acid in skin; assay: content of hyaluronic acid in skin of aging mice after application to dorsal skin; type: in vivo; conditions: aging mice Balb/c; for efficacy in increasing the content of hyaluronic acid in skin when combined with alimidex: DHEA administered simultaneously with aromatase inhibitor alimidex
Excerpt: Dehydroepiandrosterone (DHEA) as an ethanol solution at a concentration of 10^-1M was applied to skin of the dorsal part of aging mice (Balb/c, 48 weeks old, in each group consisting of 6 animals) for 5 weeks.
To evaluate the reproducibility of its efficacy, DHEA was applied in various concentrations of 10^-1, 10^-2 and 10^-3M to aging mice (Balb/c, 53 weeks, in each group consisting of 8 animals). Further, in order to see whether DHEA became effective only after it was metabolized to estrodiol, alimidex that inhibited aromatase, which is an enzyme for causing a conversion to estrogens, was administered simultaneously with DHEA. […] This means the concentration of DHEA can be lowered to a tenth of the initial value.

Row | Structure (SMILES) | LD50 ([1]; iv, injected intravenously) | LD50 ([1]; po, peroral) | LD50 ([1]; sc, injected subcutaneously) | content of hyaluronic acid in skin ([2]; 10^-1M, 53 weeks, reproducibility experiment, Fig. 2) | content of hyaluronic acid in skin ([2]; 10^-2M, 53 weeks, reproducibility experiment, Fig. 2) | efficacy in increasing the content of hyaluronic acid in skin when combined with alimidex ([2]; 53 weeks, Fig. 2) | efficacy in increasing the content of hyaluronic acid in skin when combined with alimidex ([2]; 53 weeks, Fig. 2, listed as dehydroepiandrosterone) | content of hyaluronic acid in skin ([2]; ethanol solution 10^-1M applied to dorsal skin for 5 weeks, 48 weeks old, vs control group, Fig. 1) | content of hyaluronic acid in skin ([2]; aromatase inhibitor applied alone, 53 weeks, Fig. 2)
1 | C[C@]12CC[C@H](O)CC1=CC[C@@H]1[C@@H]2CC[C@]2(C)C(=O)CC[C@@H]12 [DHEA, dehydroepiandrosterone] | 274 mg/kg | ≥ 10000 mg/kg | 899 mg/kg | statistically significant increase | statistically significant increase | not suppressed | not lowered | increased the content of hyaluronic acid in skin with a statistically significant difference from the control group | –
2 | CC(C)(C#N)c1cc(Cn2cncn2)cc(C(C)(C)C#N)c1 [alimidex, reference compound] | – | – | – | – | – | – | – | – | no ability to increase the content of hyaluronic acid

From patent publication EP0908183A1, “Dehydroepiandrosterone or derivatives thereof for increasing the content of hyaluronic acid in skin” (INSTITUTE FOR ADVANCED SKIN RESEARCH INC., priority 1997, dated 1999)
